The experiment deals with T1, SHV-1 β-lactamase (Klebsiella pneumoniae, UniProt P0AD64).
T1 construct: gene bla
The experiment in a line: X-ray crystal structure at […] Å (soak); Ki by direct competition kinetics. The format is biochemical.

T1 sequence (P0AD64 22-286): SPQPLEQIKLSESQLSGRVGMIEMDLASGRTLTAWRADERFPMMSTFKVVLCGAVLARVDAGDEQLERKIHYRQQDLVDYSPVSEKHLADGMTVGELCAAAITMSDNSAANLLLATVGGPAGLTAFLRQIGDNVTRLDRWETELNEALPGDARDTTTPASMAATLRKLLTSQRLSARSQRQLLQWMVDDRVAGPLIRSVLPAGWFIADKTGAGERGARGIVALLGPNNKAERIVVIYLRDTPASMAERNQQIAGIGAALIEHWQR

Regarding `C[C@]1(COC(=O)Cc2ccccc2)[C@H](C(=O)O)N2C(=O)/C(=C/c3ccccn3)[C@H]2S1(=O)=O` [SA1-204], the Ki (usually a dissociation constant, usually derived from enzyme kinetics or from competition with a known ligand) is 42 ± 4 nM.

Values taken from paper PMC3493512, “Structures of SHV-1 β-Lactamase with Penem and Penam Sulfone Inhibitors That Form Cyclic Intermediates Stabilized by Carbonyl Conjugation” (PLoS ONE, 2012).
